Test: One-compartment pharmacokinetic model simulations
Set-up: species or system mouse
Procedure: For determination of plasma concentrations of 1, C57BL/6 mice were treated with a single dose of 1 at four different dose levels (160, 120, 80, and 10 mg/kg) and blood samples were collected at multiple timepoints after dosing. Overall, the pharmacokinetics followed a dose-dependent relationship that was close to linear (Figure 3A). […] To confirm the accuracy of the simulations, C57BL/6 mice were treated intraperitoneally with 80, 120, or 160 mg/kg dose of 1 and the resulting plasma concentrations were evaluated at multiple time points within a 24 h period after one (0 h), two (0, 18 h) or three (0, 9 h, 18 h) doses.
Given the high concentrations required, there is potential for saturation of plasma protein binding to occur, where small dose increments could cause large increases in unbound concentrations.[35]
Test samples were diluted up to 100-fold in blank plasma as necessary and quantitated against a calibration curve of known analyte concentrations ranging from 3 nM to 30 μM in an appropriate matrix and quality controls at 0.03, 0.3, 3, and 30 μM. Pharmacokinetic parameters were evaluated using noncompartmental analysis and pharmacokinetic simulations using one-compartment analysis on Phoenix WinNonlin version 6.2 (Certara, Princeton, NJ). Multiple-dose simulations were generated from parameters derived from single-dose simulations.

## CN1Cc2cc(-c3ccc(-c4cncc(NS(=O)(=O)c5ccccc5[N+](=O)[O-])c4)s3)ccc2C1=O [Compound 1, N-{5-[5-(2-methyl-1-oxo-2,3-dihydro-1H-isoindol-5-yl)-2-thienyl]-3-pyridinyl}-2-nitrobenzenesulfonamide]
80 mg/kg three-dose schedule
  duration that plasma concentration achieved 350 μM: 14.9 h
Two doses of 120 mg/kg
  duration that plasma concentration achieved 350 μM: 12.0 h
Two doses of 160 mg/kg
  duration that plasma concentration achieved 350 μM: 13.4 h

Reference: PMC9194936, “Preclinical Activity and Pharmacokinetic/Pharmacodynamic Relationship for a Series of Novel Benzenesulfonamide Perforin Inhibitors” (ACS Pharmacology & Translational Science, 2022)
